Experimental data: patent EP1166781A1, “PROTEASOME INHIBITORS” (KYOWA HAKKO KOGYO CO., LTD., priority 1999, dated 2000)
Read-outs that look alike come from different tables or passages of the source.

Experiments:
proteasome = molecular target: T1, proteasome (Homo sapiens, UniProt P28074); assay: Proteasome inhibitory activity (Suc-Leu-Leu-Val-Tyr-AMC cleavage, crude enzyme solution from HeLa S3 cell extract); type: biochemical
T1 construct: The obtained high molecular fraction (molecular weight >500K) was used as an enzyme solution for the detection of proteasome activity; endogenous in cells; host or cells: HeLa S3 cells: homogenate, 100,000G supernatant, >500K fraction from Centricon-500
Description: 1 x 10^9 of HeLa S3 cells were dispersed in 5 ml of the buffer A [20 mmol/L of Tris (pH 7.5), 2 mmol/L of ATP, 5 mmol/L of MgCl2, 1 mmol/L of dithiothreitol (DTT)], and then homogenized at 4°C. The supernatant centrifuged at 100,000G was concentrated by a Centricon-500 (supplied by Amicon) and diluted with 2.5 ml of the buffer B [25 mmol/L of Tris/HCl (pH 7.5), 2 mmol/L of ATP, 1 mmol/L of DTT, 20% of glycerol]. The obtained high molecular fraction (molecular weight >500K) was used as an enzyme solution for the detection of proteasome activity. Suc-Leu-Leu-Val-Tyr-AMC [Suc: Succinyl; AMC: Aminomethylcoumarin](supplied by Peptide Institute, Inc.) was used as a substrate for measuring inhibitory activity for proteasome (stored as a 2 mmol/L DMSO solution). The reaction was carried out by the following method using 96-well microtiter plates. To 96 µl of a reaction buffer [20 mmol/L of Tris/HCl (pH 8), 0.5 mmol/L of EDTA, 0.04% of sodium dodecylsulfate (SDS)] were added 1 µl of a drug solution (DMSO) and 2 µl of an enzyme solution followed by adding 1 µl of a substrate solution thereto, and then the mixture was incubated at 37°C for one hour. […]

[1] = system: Human colon cancer, WiDr cells; assay: Antiproliferative activity in WiDr cells (MTT, 72 hours); type: cell-based
Description: Human colon cancer, WiDr cells suspended in MEM media containing 10% of fetal calf serum were seeded in 96-well microtiter plates at 2 x 10^3cells/well, and precultured in an incubator with 5% of CO2 at 37°C for 24 hours. Then, each compound diluted appropriately with the media was added into the well at 50 µl/well. At this time, a final concentration of each compound is up to 100 µmol/l or 1 µmol/l. The cells were cultured in the incubator with 5% of CO2 at 37°C for additional 72 hours. At 5 hours before the culturing was terminated, MTT [3-(4,5-dimethylthiazol-2-yl)-2,5-[…] bromide] dissolved in the medium at a final concentration of 1 mg/mL was added into the well at 50 µl/well. After the culturing, dimethyl sulfoxide was added to the well at 150 µl/well, and the plate was vigorously stirred using a plate mixer to dissolve crystals of MTT-formazan completely. […]

[2] = system: human colon cancer cell line, WiDr transplanted in nude mice; assay: Antitumor activity for WiDr transplanted in nude mice; type: in vivo, BALB/c-nu/nu mouse; details: intraperitoneally for 5 consecutive days, 7 days, WiDr solid tumor in mice
Description: Compound 4 was dissolved in ethanol and then prepared at the fixed concentrations by adding cremophor EL (supplied by SIGMA) and saline. At this time, final concentrations of ethanol, cremophor EL, and saline are 5%, 7.5% and 87.5%, respectively. 2 mm x 2 mm of the tumor piece of human colon cancer cell line, WiDr was subcutaneously transplanted in the ventral site of a BALB/c-nu/nu mouse. At the time when a tumor volume [a major axis (a), a minor axis (b): ab^2/2] attained to 25-60 mm^3, the test compound prepared was intraperitoneally administered for 5 consecutive days to five mice as one proup.
For evaluating antitumor activity of the compound, the tumor volume was measured everyday, and the ratio of the volume (V) on the day of each measurement to the volume (V0) on the day when the administration of the compound was started was obtained to calculate T/C(%).

[3] = crude proteasome fraction (>500K) from HeLa S3 cells, substrate Suc-Leu-Leu-Val-Tyr-AMC, 37°C for one hour, read-out: IC50

IC50 (proteasome; [3]) [µM] | IC50 [1] [µM] | SMILES | T/C ([2]; Dose 5.0 mg/kg/day) [%] | T/C ([2]; Dose 10.0 mg/kg/day) [%] | IC50 (proteasome) [µM]
0.008 | 0.486 | CCC(C)C1C(=O)OC1C(=O)NC1CC1CC(NC(=O)C(C)NS(=O)(=O)c1ccccc1)C(=O)OCc1ccccc1 (centres unmarked) [Compound 39] | – | – | –
0.024 | 0.45 | CCC(C)C1C(=O)OC1C(=O)NC1CC1CC(NC(=O)C(C)NS(C)(=O)=O)C(=O)OCc1ccccc1 (centres unmarked) [Compound 40] | – | – | –
0.012 | 2.4 | CCC(C)C1C(=O)OC1C(=O)NC1CC1CC(NC(=O)C(C)NP(=O)(c1ccccc1)c1ccccc1)C(=O)OCc1ccccc1 (centres unmarked) [Compound 41] | – | – | –
0.014 | 3.9 | CCC(C)C1C(=O)OC1C(=O)NC1CC1CC(NC(=O)C(C)N(Cc1ccccc1)Cc1ccccc1)C(=O)OCc1ccccc1 (centres unmarked) [Compound 43] | – | – | –
0.022 | 1.9 | CC(C)CC1C(=O)OC1C(=O)NCCCCC(COC(=O)c1ccccc1)NC(=O)C(C)NC(=O)OC(C)(C)C (centres unmarked) [Compound 56] | – | – | –
0.022 | 40 | CC(C)C[C@@H]1C(=O)O[C@H]1C(=O)NC1CC1CC(NC(=O)OC(C)(C)C)C(=O)NCc1cccc2ccccc12 (some centres unmarked) [Compound 90] | – | – | –
0.024 | 22 | CC(C)C[C@@H]1C(=O)O[C@H]1C(=O)NC1CC1CC(NC(=O)[C@H](C)NC(=O)OC(C)(C)C)C(=O)NCc1cccc2ccccc12 (some centres unmarked) [Compound 91] | – | – | –
0.4 | > 30 | CCC(C)C1C(=O)OC1C(=O)NC1CC1CC(NC(=O)C(C)N)C(=O)O (centres unmarked) [UCK14A1, reference compound] | – | – | –

SMILES | IC50 (proteasome; [3]) [µM] | IC50 [1] [µM] | T/C ([2]; Dose 5.0 mg/kg/day) [%] | T/C ([2]; Dose 10.0 mg/kg/day) [%] | IC50 (proteasome) [µM]
CCC(C)C1C(=O)OC1C(=O)NC1CC1CC(NC(=O)C(C)N)C(=O)OCc1ccccc1 (centres unmarked) [Compound 4] | 0.03 | 0.05 | 56 | 49 | –
CCC(C)C1C(=O)OC1C(=O)NCCCC(NC(=O)C(C)NC(=O)OC(C)(C)C)C(=O)OCc1ccccc1 (centres unmarked) [Compound 45] | – | 0.3 | – | – | 0.006
CCC(C)C1C(=O)OC1C(=O)NCCCC(NC(=O)C(C)N)C(=O)OCc1ccccc1 (centres unmarked) [Compound 46] | 0.006 | 0.15 | – | – | –
CC(C)C[C@@H]1C(=O)O[C@H]1C(=O)NCCCC[C@H](NC(=O)[C@H](C)N)C(=O)OCc1ccccc1 [Compound 50] | 0.03 | 1.8 | – | – | –
